Experimental data taken from patent publication US4308396A, “Thromboxane A2 analogues” (priority 1979, dated 1981).
Where two headings read alike, the source gives them in different places.

How the values were obtained:
[1] = system: blood platelets; conditions: cited from earlier work; for effect on platelet aggregation: Gorman et al, Fitzpatrick et al
[2] = system: smooth muscle, blood vessels; conditions: cited from earlier work
[3] = cited from earlier work
[4] = system: cat coronary arteries; experiment: Cat coronary artery constriction (perfused right coronary artery, constriction induced by endoperoxide analogues); type: cell-based; conditions: for inhibition at 0.1 µM: analogue 100 nM
Experimental: Thromboxane A2 analogues (up to 4 μl of a 2.5 mM solution in ethanol) were tested for their effects on cat coronary arteries continuously prefused with 10 ml Krebs-Henseleit solution as described below.
Cats of either sex (2.5-3.5 kg) were anesthetized with sodium pentobarbital (30 mg/kg) given intravenously. Hearts were reapidly excised and placed in oxygenated (95% O2 +5% CO2) ice-cold Krebs-Henseleit (K-H) solution of the following millimolar composition: NaCl, 118; KCl, 4.75; CaCl2.H2 O, 2.54; KH2 PO4, 1.19; MgSO4.7H2 O, 1.19; NaHCO3, 12.5; glucose, 10.00. A 20-gauge stainless steel cannula was inserted into the right coronary artery via the coronary ostium. Distal to the cannula, approximately 1 cm of coronary artery was dissected free of surrounding tissue. The section of right coronary artery with the cannula in place was excised from the heart and immediately transferred to a constant flow perfusion apparatus.
(§1) The perfusion apparatus consists of a reservoir containing 20 ml of warm (37° C.) oxygenated (95% O2 +5% CO2) K-H solution which bathes the coronary artery and serves as recirculating perfusate. An increase in perfusion pressure indicates vasoconstriction, whereas a decrease in perfusion pressure signifies vasodilation. Following an initial 1 hr. equilibrium period, vascular responsiveness was established by adding 25 mM KCl. After washing with fresh K-H solution for 20-30 minutes, the preparation achieved a relatively constant low basal tone. Basal perfusion pressure averaged 50±2.5 mm Hg. Fresh K-H dilutions of stock thromboxane analog concentrations were added to the perfusate reservoir in 0.1-0.2 ml volumes. Changes in perfusion pressure in response to thromboxane analogue addition generally plateaus within 5 minutes of administration. Constriction of the arteries was induced by addition of 15 or 30 nM 9,11-azo-prostaglandinendoperoxide (azo-PGH2), or 1 μM 9,11-methanoepoxy-PGH2. These compounds and their effects are described in the following references: Corey et al, PNAS, U.S.A. 72, 3355 (1975); Bundy, G. L., Tetr.Lett, 1957 (1975); Malmsten, C., Life Sci, 18, 169 (1976) and Smith, J. B., et al, in Platelets and Thrombosis, Ed. by Mills, D.C.B. et al, Academic Press, London/N.Y. 1977, pp 83-95. The effect of thromboxane analogues on the release of cathepsin D from the cat liver large granule fraction was determined as described in Lefer, A. M. et al, Science 200, 52 (1978). The effect of thromboxane analogues on the release of cathepsin D from the cat liver large granule fraction was determined as described in Lefer, A. M. et al, Science 200, 52 (1978).

[5] = system: cat liver lysosomes; experiment: Release of cathepsin D from cat liver large granule fraction (lysosome stabilization); type: cell-based; conditions: 1 μM
Experimental: as §1, with “These compounds and their effects are described in the following references: Corey et al, PNAS, U.S.A. 72, 3355 (1975); Bundy, G. L., Tetr.Lett, 1957 (1975); Malmsten, C., Life Sci, 18, 169 (1976) and Smith, J. B., et al, in Platelets and Thrombosis, Ed. by Mills, D.C.B. et al, Academic Press, London/N.Y. 1977, pp 83-95.” left out, “(1978).” for “(1978). The effect of thromboxane analogues on the release of cathepsin D from the cat liver large granule fraction was determined as described in Lefer, A. M. et al, Science 200, 52 (1978).”

[6] = system: human platelets; experiment: Platelet aggregation in citrated human platelet-rich plasma; type: cell-based
Experimental: (§2) Platelet aggregation was studied in an aggregometer (Chronolog Corp., Phila., PA) using 0.5 ml citrated human platelet-rich plasma at 35° C. One minute after addition of analogue (up to 2 μl of a 25 mM solution in ethanol) aggregation was initiated by addition of sodium arachidonate (0.3-0.5 mM), ADP (2 μM) collagen (1 μg/ml), epinephrine (50 μM), 9,11-azo-PGH2, (0.1-0.6 μM), 9,11-methanoepoxy-PGH2, (0.3-0.6 μM), or 9,11-epoxy methano-PGH2 (1-3 μM). The analogues were also tested for their effects on the inhibition of ADP-induced aggregation by 2 nM prostacyclin or 20 nM prostaglandin D2.

[7] = target: T1, thromboxane synthetase (Oryctolagus cuniculus, UniProt G1TAZ9); experiment: Thromboxane synthesis from 1-14C-arachidonic acid by washed rabbit platelets; type: cell-based
T1 sequence (G1TAZ9 1-530): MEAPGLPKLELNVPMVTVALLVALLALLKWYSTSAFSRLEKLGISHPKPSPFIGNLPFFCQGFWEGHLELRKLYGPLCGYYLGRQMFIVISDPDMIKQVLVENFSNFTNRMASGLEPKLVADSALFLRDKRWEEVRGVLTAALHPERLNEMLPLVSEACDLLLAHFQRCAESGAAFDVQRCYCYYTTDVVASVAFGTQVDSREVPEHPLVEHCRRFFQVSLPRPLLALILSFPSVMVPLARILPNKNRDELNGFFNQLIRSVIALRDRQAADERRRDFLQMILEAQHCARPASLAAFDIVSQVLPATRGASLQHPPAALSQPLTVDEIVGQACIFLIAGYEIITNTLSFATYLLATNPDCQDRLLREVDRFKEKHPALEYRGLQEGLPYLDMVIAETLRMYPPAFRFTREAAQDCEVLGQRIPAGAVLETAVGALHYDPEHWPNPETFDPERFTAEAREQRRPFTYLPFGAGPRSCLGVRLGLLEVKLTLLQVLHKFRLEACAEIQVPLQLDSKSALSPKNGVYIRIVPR
Experimental: (§3) To study the effects of analogues on thromboxane synthesis, rabbit platelets were washed free of plasma, resuspended in buffered saline solution and incubated at 37° C. for 5 minutes with analogues at either 10 μM or 100 μM. Radioactive 1-^14 C-arachidonic acid (0.5 μCi, SA 50 Ci/mol, New England Nuclear, Boston, Mass.) was added and incubation was continued for 15 minutes, lipids were extracted by the method of Folch, J. Biol. Chem. 226, 497 (1957), and subjected to thin layer chromatography. In additional experiments, human platelet-rich plasma was incubated at 37° C. in the aggregometer for 1 minute with analogues. Sodium arachidonate (0.4 mM) was added and incubation was continued for 5 minutes. The samples were decanted into one-tenth vol. 100 mM EDTA, centrifuged for 2 minutes at 15,000 g, and thromboxane B2 in the supernatant was determined by radioimmunoassay.

[8] = system: thromboxane synthetase; experiment: Thromboxane B2 formation in human platelet-rich plasma (radioimmunoassay); type: cell-based; conditions: 50 μM
Experimental: as §3

[9] = system: Prostacyclin Synthetase; experiment: Prostacyclin synthetase, sheep vesicular glands, 1-14C-arachidonic acid as substrate; type: biochemical; conditions: 100 μM; Table 1
Experimental: The effects of analogues on prostacyclin synthetase were determined using sheep vesicular glands as the enzyme source and 1-^14 C-arachidonic acid as substrate essentially as described by Cottee, F. et al, in Prostaglandins, 14, 413 (1978).

[10] = system: human platelets; experiment: Effect on the inhibition of ADP-induced platelet aggregation by prostacyclin or prostaglandin D2; type: cell-based
Experimental: as §2

[11] = target: Thromboxane Synthetase; experiment: Thromboxane synthetase inhibition (Table 1); type: biochemical; conditions: read-out: Inhibits Thromboxane Synthetase, ID50
Experimental: as §3

[12] = system: cyclooxygenase; experiment: Effect on cyclooxygenase, washed rabbit platelets; type: cell-based; conditions: inferred from prostaglandin increases
Experimental: as §3

Q: With `CCCCCCC=CC1C2CC(N=N2)C1CC=CCCCC(=O)O` (stereo not shown) [15-deoxy-9,11-azo-PGH2] as the compound, how does the “effect on platelet aggregation” value [1] read?
A: The value was “inhibits platelet aggregation”.

Q: With `CCCCCC/C=C/C1C2CC(ON2)C1C/C=C\CCCC(=O)O` (stereo not shown) [15-deoxy-9,11-epoxyimino-PGH2] as the compound, how does the “effect on platelet aggregation” value [1] read?
A: The value was “inhibits platelet aggregation”.

Q: With `CCCCC[C@H](O)/C=C/[C@H]1O[C@H]2C[C@H](O2)[C@@H]1C/C=C\CCCC(=O)O` [TA2, thromboxane A2] as the compound, how does the thrombotic properties [1] read?
A: Its thrombotic properties is “potent thrombotic”.

Q: And the “smooth muscle constricting properties” value [2]?
A: The value was “smooth muscle constricting”.

Q: And the “half-life under physiological conditions” value ([3]; pH 7.4 and 37° C.)?
A: Its value is 30 seconds.

Q: Which IC50 ([4]; Felis catus, Table 1, read-out: Inhibits Coronary Artery Contraction by Prostaglandin Endoperoxide Analogues, ID50) does the source give for `CCCCCC(O)C=CC1CC2CC(C1CC=CCCCC(=O)O)C2(C)C` (single isomer, unassigned) [III (R^1 =R^2 =OH, 16S), Pinane Thromboxane A2, free acid] here?
A: Its IC50 is 100 nM.

Q: And the inhibition at 0.1 µM ([4]; Felis catus, read-out: reduction of constriction induced by 15 nM 9,11-azo-PGH2)?
A: The inhibition at 0.1 µM was 73%.

Q: What about the inhibition at 0.1 µM ([4]; Felis catus, read-out: reduction of constriction induced by 30 nM 9,11-azo-PGH2) of the same compound?
A: Its inhibition at 0.1 µM is 50%.

Q: And the “constriction induced by 30 nM 9,11-azo-PGH2” value ([4]; analogue 1 μm)?
A: The value was “abolished”.

Q: And the “inhibition of the release of cathepsin D from cat liver lysosomes” value ([5]; 4 experiments)?
A: Its value is “significant inhibition (p<0.005)”.

Q: And the “Stabilizes Lysosomes” value ([5]; Table 1)?
A: The value was “Stabilizes Lysosomes”.

Q: What about the “platelet aggregation induced by arachidonic acid” value ([6]; 10 μM) of the same compound?
A: The value was “abolished”.

Q: What about the “platelet aggregation induced by collagen” value ([6]; 10 μM) of the same compound?
A: The value was “partially inhibited”.

Q: What about the “primary aggregation induced by ADP” value ([6]; 10 μM) of the same compound?
A: The value was “did not inhibit”.

Q: What about the “primary aggregation induced by epinephrine” value ([6]; 10 μM) of the same compound?
A: Its value is “did not inhibit”.

Q: And the “second wave of aggregation induced by ADP” value ([6]; 10 μM)?
A: The value was “abolished”.

Q: What about the “second wave of aggregation induced by epinephrine” value ([6]; 10 μM) of the same compound?
A: The value was “abolished”.

Q: And the “arachidonic acid-induced aggregation in human platelet-rich plasma” value ([6]; 50 μM)?
A: Its value is “abolished”.

Q: What about the “aggregation induced by 9,11-azo-PGH2” value ([6]; 1-15 μM, dose-dependent) of the same compound?
A: Its value is “inhibited”.

Q: And the “aggregation induced by 9,11-epoxymethano-PGH2” value ([6]; 1-15 μM, dose-dependent)?
A: Its value is “inhibited”.

Q: And the “aggregation induced by 9,11-methanoepoxy-PGH2” value ([6]; 1-15 μM, dose-dependent)?
A: Its value is “inhibited”.

Q: What about the IC50 ([6]; Homo sapiens, Platelet, Table 1, read-out: Inhibits Aggregation by Prostaglandin Endoperoxide Analogues, ID50) of the same compound?
A: The IC50 was 2000 nM.

Q: And the inhibition at 10 µM ([7]; 10 μM, read-out: inhibition of thromboxane B2 formation from 1-14C-arachidonic acid)?
A: The inhibition at 10 µM was 23%.

Q: And the inhibition at 100 µM ([7]; 100 μM, read-out: inhibition of thromboxane B2 formation from 1-14C-arachidonic acid)?
A: The inhibition at 100 µM was 83%.

Q: What about the “radioactive prostaglandins E2, D2 and F2 α” value ([7]; with thromboxane B2 inhibition) of the same compound?
A: Its value is “corresponding increases”.

Q: And the “reduction of thromboxane B2 formation in human platelet-rich plasma” value [8]?
A: Its value is 50%.

Q: And the “effect on Prostacyclin Synthetase” value [9]?
A: Its value is “no effect”.

Q: What about the “effect on the inhibition of aggregation by prostaglandin D2” value ([10]; 10 μM) of the same compound?
A: The value was “nor did it affect”.

Q: What about the “effect on the Inhibition of Platelet Aggregation by Prostacyclin” value ([10]; Table 1) of the same compound?
A: Its value is “no effect”.

Q: What about the “effect on the Inhibition of Platelet Aggregation by Prostaglandin D2” value ([10]; Table 1) of the same compound?
A: Its value is “no effect”.

Q: And the IC50 [11]?
A: Its IC50 is 50000 nM.

Q: What about the effect on cyclooxygenase [12] of the same compound?
A: Its effect on cyclooxygenase is “not on cyclooxygenase”.

Q: With `CCCCCC(O)C=CC1C(O)CC2OC(=CCCCC(=O)O)CC21` (stereo not drawn) [Prostacyclin, 6,9α-oxido-11α, 15α-dihydroxyprosta (Z) 5, E(13)-dienoic acid] as the compound, how does the “effect on platelet aggregates after they have formed” value [1] read?
A: The value was “destroys platelet aggregates after they have formed”.

Q: What about the “inhibition of blood platelet aggregation” value ([1]; compared with all prostaglandins discovered to date) of the same compound?
A: Its value is “most potent inhibitor of blood platelet aggregation”.

Q: And the “dilation of blood vessels” value [2]?
A: Its value is “powerful action as a dilator of blood vessels”.

Q: And the “half-life under physiological conditions” value ([3]; pH 7.4)?
A: Its value is “about 2 minutes”.

Q: For `CCCCCC(O)C=CC1CC2CC(C1CC=CCCCC(=O)O)C2(C)C` (single isomer, unassigned) [16R epimer of the analogue III (R^1 =R^2 =--OH), Pinane Thromboxane A2, free acid], which “effectiveness as a prostaglandin endoperoxide antagonist, relative to the 16S epimer” value ([6]; compared with 16S epimer) is on record?
A: The value was “approximately ten times less effective”.

Q: Which results are given for `CCCCCC(O)C=CC1C2CC(N=N2)C1CC=CCCCC(=O)O` (stereo not shown) [9,11-azo-PGH2, 9, 11-azo prostaglandin endoperoxide, reference compound]?
A: Mean constriction at 15 nM 9,11-azo-PGH2 ([4]; 15 nM, three experiments): 32 mm Hg; Mean constriction at 30 nM 9,11-azo-PGH2 ([4]; 30 nM, three experiments): 53 mm Hg; effect on platelet aggregation [1]: has aggregating activity
